These molecules were tested on Dengue-2 (Strain New Guinea C) (assay: Viral yield assay against Dengue-2 in Vero cells). Details: Dengue virus, DENV2, Vero, 48 h, read-out: Activity (EC50 in μM) DENV-2.
Format: cell-based, Dengue virus
Procedure, shortened: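 Virus yield, titered on Vero cells from cultures harvested at 48 h post infection, gave the EC50. Cultures were infected at MOI 0.1 with dengue-2 and treated with compound or DMSO at 37° C. DENV-1 and DENV-4 were determined similarly.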

| SMILES | EC50 [µM] |
| --- | --- |
| Nc1c(C(=O)N2CCC[C@H]2C(=O)O)sc2nc(-c3cccs3)ccc12 [Compound 484, 1-[3-amino-6-(2-thienyl)thieno[2,3-b]pyridine-2-carbonyl]pyrrolidine-2-carboxylic acid] | < 5 |
| Nc1c(C(=O)Nc2nc3ccccc3s2)sc2nc(-c3cccs3)ccc12 [Compound 436, 3-amino-N-(1,3-benzothiaozl-2-yl)-6-(2-thienyl)thieno[2,3-b]pyridine-2-carboxamide] | < 5 |
| COc1ccc(NC(=O)c2sc3nc(-c4cccs4)ccc3c2N)c(OC)c1 [Compound 432, 3-amino-N-(2,4-dimethoxyphenyl)-6-(2-thienyl)thieno[2,3-b]pyridine-2-carboxamide] | 5 to 25 |

Same assay, conditions: Dengue virus, DENV2; viral yield assay, Vero cells, MOI 0.1, 48 hours post infection; read-out: Activity (EC50 in μM) DENV-2

| SMILES | EC50 [µM] |
| --- | --- |
| COc1cccc(-c2ccc3c(N)c(C(=O)Nc4ccc(Cl)cc4Cl)sc3n2)c1 [Compound 545, 3-amino-N-(2,4-dichlorophenyl)-6-(3-methoxyphenyl)thieno[2,3-b]pyridine-2-carboxamide] | < 5 |
| Cc1cc(NC(=O)c2sc3nc(-c4ccc5c(c4)OCO5)ccc3c2N)ccc1Br [Compound 590, 3-amino-6-(1,3-benzodioxol-5-yl)-N-(4-bromo-3-methyl-phenyl)thieno[2,3-b] pyridine-2-carboxamide] | < 5 |
| COc1ccccc1NC(=O)c1sc2nc(-c3ccc(C)cc3)ccc2c1N [Compound 643, 3-amino-N-(2-methoxyphenyl)-6-(p-tolyl)thieno[2,3-b]pyridine-2-carboxamide] | < 5 |
| Cc1cc(C)c2c(C)c(C(=O)NC(C)C3CC3)sc2n1 (stereo not drawn) [Compound 394, N-(1-cyclopropylethyl)-3,4,6-trimethyl-thieno[2,3-b]pyridine-2-carboxamide] | < 5 |
| Cc1ccc(NC(=O)c2sc3nc(-c4ccc(F)cc4)ccc3c2N)c(C)c1 [Compound 614, 3-amino-N-(2,4-dimethylphenyl)-6-(4-fluorophenyl)thieno[2,3-b]pyridine-2-carboxamide] | < 5 |
| Nc1c(C(=O)Nc2ccc(Br)cc2)sc2nc(-c3cccnc3)ccc12 [Compound 435, 3-amino-N-(4-bromophenyl)-6-(3-pyridyl)thieno[2,3-b]pyridine-2-carboxamide] | < 5 |
| COc1cccc(-c2ccc3c(N)c(C(=O)Nc4cccc(F)c4C)sc3n2)c1 [Compound 515, 3-amino-N-(3-fluoro-2-methyl-phenyl)-6-(3-methoxyphenyl)thieno[2,3-b] pyridine-2-carboxamide] | < 5 |
| Cc1cc(C)c2c(C)c(C(=O)N3CCN(c4cnccn4)CC3)sc2n1 [Compound 404] | < 5 |
| COc1cccc(-c2ccc3c(N)c(C(=O)Nc4ccc(Br)cc4C)sc3n2)c1 [Compound 549, 3-amino-N-(4-bromo-2-methyl-phenyl)-6-(3-methoxyphenyl)thieno[2,3-b] pyridine-2-carboxamide] | < 5 |
| COc1cccc(-c2ccc3c(N)c(C(=O)Nc4ccc(F)cc4C)sc3n2)c1 [Compound 551, 3-amino-N-(4-fluoro-2-methyl-phenyl)-6-(3-methoxyphenyl)thieno[2,3-b] pyridine-2-carboxamide] | < 5 |
| O=C(Nc1ccccc1Cl)c1sc2ncccc2c1O [Compound 382, N-(2-chlorophenyl)-3-hydroxy-thieno[2,3-b]pyridine-2-carboxamide] | 5 to 25 |
| Cc1cc(C)c2c(C)c(C(=O)NCCC(=O)N3CCCC3)sc2n1 [Compound 405, 3,4,6-trimethyl-N-(3-oxo-3-pyrrolidin-1-yl-propyl)thieno[2,3-b]pyridine-2-carboxamide] | < 5 |
| Nc1c(C(=O)Nc2nnc(-c3ccccc3)s2)sc2ncc(C(=O)O)cc12 [Compound 291, 3-amino-2-[(5-phenyl-1,3,4-thiadiazol-2-yl)carbamoyl]thieno[2,3-b]pyridine-5-carboxylic acid] | 5 to 25 |
| COc1ccc(OC)c(NC(=O)c2sc3nc(-c4ccc(OC)c(OC)c4)ccc3c2N)c1 [Compound 518, 3-amino-N-(2,5-dimethoxyphenyl)-6-(3,4-dimethoxyphenyl)thieno[2,3-b]pyridine-2-carboxamide] | < 5 |

Same assay, conditions: Dengue virus, Vero, 48 h, read-out: Activity (EC50 class) against Dengue-2 Virus in Vero cells

| SMILES | EC50 [µM] |
| --- | --- |
| CCN1CCc2nc3sc(C(=O)N4CCc5ccccc5C4)c(N)c3cc2C1 [Compound 22, (3-Amino-6-ethyl-5,6,7,8-tetrahydro-thieno[2,3-b][1,6]naphthyridin-2-yl)-(3,4-dihydro-1H-isoquinolin-2-yl)-methanone] | < 5 |
| Cc1csc(NC(=O)c2sc3nc(-c4cccs4)ccc3c2N)n1 [Compound 55, 3-Amino-6-thiophen-2-yl-thieno[2,3-b]pyridine-2-carboxylic acid (4-methyl-thiazol-2-yl)amide] | < 5 |
| Nc1c(C(=O)Nc2ccc(F)cc2)sc2nc3c(cc12)CCCCC3 [Compound 116, 3-Amino-6,7,8,9-tetrahydro-5H-1-thia-10-aza-cyclohepta[f]indene-2-carboxylic acid (4-fluoro-phenyl)-amide] | > 25 |

Same assay, conditions: Dengue virus; Vero cells, MOI 0.1, harvested 48 hours post infection; read-out: Activity (EC50 class) against Dengue-2 Virus in Vero cells

| SMILES | EC50 [µM] |
| --- | --- |
| COc1ccc(NC(=O)c2sc3nc(-c4ccccc4)cc(C(F)(F)F)c3c2N)cc1 [Compound 119, 3-Amino-6-phenyl-4-trifluoromethyl-thieno[2,3-b]pyridine-2-carboxylic acid (4-methoxy-phenyl)-amide] | > 25 |
| CN1CCc2nc3sc(C(=O)Nc4cc(Br)ccc4Br)c(N)c3cc2C1 [Compound 63, 3-Amino-6-methyl-5,6,7,8-tetrahydro-thieno[2,3-b][1,6]naphthyridine-2-carboxylic acid (2,5-dibromo-phenyl)-amide] | < 5 |
| CCN(CC)C(=O)c1sc2nc3c(cc2c1N)CN(C)CC3 [Compound 15, 3-Amino-6-methyl-5,6,7,8-tetrahydro-thieno[2,3-b][1,6]naphthyridine-2-carboxylic acid diethylamide] | < 5 |
| CN1CCc2nc3sc(C(=O)NCCc4ccccc4)c(N)c3cc2C1 [Compound 267, 3-Amino-6-methyl-5,6,7,8-tetrahydro-thieno[2,3-b][1,6]naphthyridine-2-carboxylic acid phenethyl-amide] | > 25 |
| Cc1cc(C)c2c(N)c(C(=O)NC34CC5CC(CC(C5)C3)C4)sc2n1 [Compound 122, 3-Amino-4,6-dimethyl-thieno[2,3-b]pyridine-2-carboxylic acid adamantan-1-ylamide] | > 25 |
| CC(=O)c1cc2c(N)c(C(=O)NC34CC5CC(CC(C5)C3)C4)sc2nc1C [Compound 142, 5-Acetyl-3-amino-6-methyl-thieno[2,3-b]pyridine-2-carboxylic acid adamantan-1-ylamide] | > 25 |
| Cc1cc(C)c2c(N)c(C(=O)N3CCOCC3)sc2n1 [Compound 145, (3-Amino-4,6-dimethyl-thieno[2,3-b]pyridin-2-yl)-morpholin-4-yl-methanone] | > 25 |
| CCC1(C)Cc2c(c(N3CCOCC3)nc3sc4c(=O)[nH]cnc4c23)CO1 (stereo not drawn) [Compound 261, 2-Ethyl-2-methyl-5-morpholin-4-yl-1,4-dihydro-2H,9H-3-oxa-7-thia-6,9,11-triaza-benzo[c]fluoren-8-one] | > 25 |
| COc1ccc(Cl)cc1NC(=O)c1sc2nc3c(cc2c1N)CN(Cc1ccccc1)CC3 [Compound 31, 3-Amino-6-benzyl-5,6,7,8-tetrahydro-thieno[2,3-b][1,6]naphthyridine-2-carboxylic acid (5-chloro-2-methoxy-phenyl)-amide] | < 5 |
| CN1CCc2nc3sc(C(=O)Nc4cc(Cl)ccc4Cl)c(N)c3cc2C1 [Compound 44, 3-Amino-6-methyl-5,6,7,8-tetrahydro-thieno[2,3-b][1,6]naphthyridine-2-carboxylic acid (2,5-dichloro-phenyl)-amide] | < 5 |
| Cc1cc(C)c2c(N)c(C(=O)Nc3ccc(S(N)(=O)=O)cc3)sc2n1 [Compound 183, 3-Amino-4,6-dimethyl-thieno[2,3-b]pyridine-2-carboxylic acid (4-sulfamoyl-phenyl)-amide] | > 25 |
| CC1(C)CC(=O)c2cc3c(N)c(C(=O)Nc4ccc([N+](=O)[O-])cc4)sc3nc2C1 [Compound 214, 3-Amino-7,7-dimethyl-5-oxo-5,6,7,8-tetrahydro-thieno[2,3-b]quinoline-2-carboxylic acid (4-nitro-phenyl)-amide] | > 25 |
| CC1(C)Cc2nc3sc4c(=O)n(Cc5ccccc5)cnc4c3cc2CO1 [Compound 174, 2-Benzyl-8,8-dimethyl-8,9-dihydro-2H,6H-7-oxa-11-thia-2,4,10-triaza-benzo[b]fluoren-1-one] | > 25 |
| Cc1cccc(NC(=O)c2sc3nc(N)c(C#N)c(-c4ccc(C(C)C)cc4)c3c2N)c1C [Compound 143, 3,6-Diamino-5-cyano-4-(4-isopropyl-phenyl)-thieno[2,3-b]pyridine-2-carboxylic acid (2,3-dimethyl-phenyl)-amide] | > 25 |
| COc1ccc(-c2cc(-c3cccs3)nc3sc(C(N)=O)c(N)c23)cc1 [Compound 238, 3-Amino-4-(4-methoxy-phenyl)-6-thiophen-2-yl-thieno[2,3-b]pyridine-2-carboxylic acid amide] | > 25 |
| NC(=O)c1sc2nc(-c3cccnc3)ccc2c1N [Compound 164, 3-Amino-6-pyridin-3-yl-thieno[2,3-b]pyridine-2-carboxylic acid amide] | > 25 |
| CC(=O)c1ccc(NC(=O)c2sc3nc4c(cc3c2N)CN(C)CC4)cc1 [Compound 43, 3-Amino-6-methyl-5,6,7,8-tetrahydro-thieno[2,3-b][1,6]naphthyridine-2-carboxylic acid (4-acetyl-phenyl)-amide] | < 5 |
| CCOC(=O)N1CCC(NC(=O)c2sc3nc4c(cc3c2N)CN(CC)CC4)CC1 [Compound 275] | > 25 |
| CC(=O)c1ccc(NC(=O)c2sc3nc4c(c(-c5ccccc5)c3c2N)CN(C)CC4)cc1 [Compound 51, 3-Amino-6-methyl-4-phenyl-5,6,7,8-tetrahydro-thieno[2,3-b][1,6]naphthyridine-2-carboxylic acid (4-acetyl-phenyl)-amide] | < 5 |

From patent publication US20170121344A1 (Siga Technologies, Inc., priority 2009, published 2017)
